Reference: patent US20190284136A1, “INDOLINE DERIVATIVES” (ViiV HEALTHCARE UK LIMITED, priority 2016, published 2019)
Where two headings read alike, the source gives them in different places.

System: HIV
Test: Table 1 IC50 of the examples (assay method not given; patent concerns inhibiting HIV replication)
Type: cell-based

Row | Compound | IC50 (Human immunodeficiency virus 1) | IC50
1 | Cc1cc2c(ccn2Cc2ccc(F)c(F)c2)c(-c2cc(F)c3c(c2C)CCCO3)c1[C@H](OC(C)(C)C)C(=O)O (atropisomer, axis not shown) [Example 198, (S)-2-(tert-Butoxy)-2-((R)-1-(3,4-difluorobenzyl)-4-(8-fluoro-5-methylchroman-6-yl)-6-methyl-1H-indol-5-yl)acetic acid] | 150 nM | –
2 | Cc1cc(F)ccc1Cn1ccc2c(-c3cc(F)c4c(c3C)CCCO4)c([C@H](OC(C)(C)C)C(=O)O)c(C)cc21 (atropisomer, axis not shown) [Example 199, (S)-2-(tert-Butoxy)-2-((R)-1-(4-fluoro-2-methylbenzyl)-4-(8-fluoro-5-methylchroman-6-yl)-6-methyl-1H-indol-5-yl)acetic acid] | 42 nM | –
3 | COc1c(F)cccc1Cn1ccc2c(-c3cc(F)c4c(c3C)CCCO4)c([C@H](OC(C)(C)C)C(=O)O)c(C)cc21 (atropisomer, axis not shown) [Example 200, (S)-2-(tert-Butoxy)-2-((R)-1-(3-Fluoro-2-methoxybenzyl)-4-(8-fluoro-5-methylchroman-6-yl)-6-methyl-1H-indol-5-yl)acetic acid] | 34 nM | –
4 | Cc1cc2c(ccn2Cc2ccccn2)c(-c2cc(F)c3c(c2C)CCCO3)c1[C@H](OC(C)(C)C)C(=O)O (atropisomer, axis not shown) [Example 201, (S)-2-(tert-Butoxy)-2-((R)-4-(8-Fluoro-5-methylchroman-6-yl)-6-methyl-1-(pyridin-2-ylmethyl)-1H-indol-5-yl)acetic acid] | 80 nM | –
5 | Cc1cc2c(ccn2C(=O)c2ccc(F)c(F)c2)c(-c2cc(F)c3c(c2C)CCCO3)c1[C@H](OC(C)(C)C)C(=O)O (atropisomer, axis not shown) [Example 203, (S)-2-(tert-Butoxy)-2-((R)-1-(3,4-difluorobenzoyl)-4-(8-fluoro-5-methylchroman-6-yl)-6-methyl-1H-indol-5-yl)acetic acid] | 16 nM | –
6 | Cc1ccc(C(=O)N2c3cc(C)c([C@H](OC(C)(C)C)C(=O)O)c(-c4cc(F)c5c(c4C)CCCO5)c3CC2(C)C)cn1 (atropisomer, axis not shown) [Example 204, (S)-2-(tert-Butoxy)-2-((R)-4-(8-Fluoro-5-methylchroman-6-yl)-2,2,6-trimethyl-1-(6-methylnicotinoyl)indolin-5-yl)acetic acid] | 19 nM | –
7 | COc1ccc(C)cc1C(=O)N1c2cc(C)c([C@H](OC(C)(C)C)C(=O)O)c(-c3cc(F)c4c(c3C)CCCO4)c2CC1(C)C (atropisomer, axis not shown) [Example 205, (S)-2-(tert-Butoxy)-2-((R)-4-(8-Fluoro-5-methylchroman-6-yl)-1-(2-methoxy-5-methylbenzoyl)-2,2,6-trimethylindolin-5-yl)acetic acid] | 20 nM | –
8 | COc1ccc(C(=O)N2c3cc(C)c([C@H](OC(C)(C)C)C(=O)O)c(-c4cc(F)c5c(c4C)CCCO5)c3CC2(C)C)cc1C (atropisomer, axis not shown) [Example 206, (S)-2-(tert-Butoxy)-2-((R)-4-(8-fluoro-5-methylchroman-6-yl)-1-(4-methoxy-3-methylbenzoyl)-2,2,6-trimethylindolin-5-yl)acetic acid] | 13 nM | –
9 | COc1c(F)cccc1C(=O)N1CCc2c1cc(C)c([C@H](OC(C)(C)C)C(=O)O)c2-c1cc(F)c2c(c1C)CCCO2 (atropisomer, axis not shown; (P)) [Example 23, (S)-2-(tert-Butoxy)-2-((P)-1-(3-fluoro-2-methoxybenzoyl)-4-(8-fluoro-5-methylchroman-6-yl)-6-methylindolin-5-yl)acetic acid] | – | 95 nM
10 | Cc1ccc(-c2c3c(cc(C)c2C(OC(C)(C)C)C(=O)O)N(Cc2ccc(F)c(F)c2)CC3)cc1 (centres unmarked) [Example 1] | 517 nM | –
11 | Cc1cc2c(c(-c3cc(F)c4c(c3C)CCCO4)c1C(OC(C)(C)C)C(=O)O)CCN2Cc1ccc(F)c(F)c1 (centres unmarked) [Example 2, 2-(tert-Butoxy)-2-(1-(3,4-difluorobenzyl)-4-(8-fluoro-5-methylchroman-6-yl)-6-methylindolin-5-yl)acetic acid] | 330 nM | –
12 | Cc1ccc(-c2c3c(cc(C)c2C(OC(C)(C)C)C(=O)O)N(C(=O)c2ccc(F)c(F)c2)CC3)cc1 (centres unmarked) [Example 3, 2-(tert-Butoxy)-2-(1-(3,4-difluorobenzoyl)-6-methyl-4-(p-tolyl)indolin-5-yl)acetic acid] | 12 nM | –
13 | Cc1ccc(-c2c3c(cc(C)c2C(OC(C)(C)C)C(=O)O)N(C2CCCCC2)CC3)cc1 (centres unmarked) [Example 4, 2-(tert-Butoxy)-2-(1-cyclohexyl-6-methyl-4-(p-tolyl)indolin-5-yl)acetic acid] | 7520 nM | –
14 | Cc1ccc(-c2c3c(cc(C)c2C(OC(C)(C)C)C(=O)O)N(C(=O)C(=O)N2CCCCC2)CC3)cc1 (centres unmarked) [Example 5, 2-(tert-Butoxy)-2-(6-methyl-1-(2-oxo-2-(piperidin-1-yl)acetyl)-4-(p-tolyl)indolin-5-yl)acetic acid] | 343 nM | –
15 | Cc1ccc(-c2c3c(cc(C)c2C(OC(C)(C)C)C(=O)O)N(C(=O)N2CCCCC2)CC3)cc1 (centres unmarked) [Example 6, 2-(tert-Butoxy)-2-(6-methyl-1-(piperidine-1-carbonyl)-4-(p-tolyl)indolin-5-yl)acetic acid] | 369 nM | –
16 | Cc1ccc(-c2c3c(cc(C)c2C(OC(C)(C)C)C(=O)O)N(C(=O)Nc2ccc(F)cc2)CC3)cc1 (centres unmarked) [Example 7, 2-(tert-Butoxy)-2-(1-((4-fluorophenyl)carbamoyl)-6-methyl-4-(p-tolyl)indolin-5-yl)acetic acid] | 3010 nM | –

Row | Compound | IC50 (Human immunodeficiency virus 1) | IC50
17 | Cc1ccc(-c2c3c(cc(C)c2C(OC(C)(C)C)C(=O)O)N(C(=O)C2CCCCC2)CC3)cc1 (centres unmarked) [Example 8, 2-(tert-Butoxy)-2-(1-(cyclohexanecarbonyl)-6-methyl-4-(p-tolyl)indolin-5-yl)acetic acid] | 15 nM | –
18 | Cc1ccc(-c2c3c(cc(C)c2[C@H](OC(C)(C)C)C(=O)O)N(C(=O)c2ccc(C)cc2C)CC3)cc1 [Example 9, (S)-2-(tert-Butoxy)-2-(1-(2,4-dimethylbenzoyl)-6-methyl-4-(p-tolyl)indolin-5-yl)acetic acid] | 11 nM | –
19 | COc1ccc(C(=O)N2CCc3c2cc(C)c([C@H](OC(C)(C)C)C(=O)O)c3-c2ccc(C)cc2)c(C)c1 [Example 10, (S)-2-(tert-Butoxy)-2-(1-(4-methoxy-2-methylbenzoyl)-6-methyl-4-(p-tolyl)indolin-5-yl)acetic acid] | 12 nM | –
20 | COc1ccc(C(=O)N2CCc3c2cc(C)c([C@H](OC(C)(C)C)C(=O)O)c3-c2ccc(C)cc2)cc1F [Example 11, (S)-2-(tert-Butoxy)-2-(1-(3-fluoro-4-methoxybenzoyl)-6-methyl-4-(p-tolyl)indolin-5-yl)acetic acid] | 4 nM | –
21 | COc1cc(C(=O)N2CCc3c2cc(C)c([C@H](OC(C)(C)C)C(=O)O)c3-c2ccc(C)cc2)cc(F)c1F [Example 12, (S)-2-(tert-Butoxy)-2-(1-(3,4-difluoro-5-methoxybenzoyl)-6-methyl-4-(p-tolyl)indolin-5-yl)acetic acid] | 4 nM | –
22 | COc1ccc(C(=O)N2CCc3c2cc(C)c([C@H](OC(C)(C)C)C(=O)O)c3-c2ccc(C)cc2)cc1 [Example 13, (S)-2-(tert-Butoxy)-2-(1-(4-methoxybenzoyl)-6-methyl-4-(p-tolyl)indolin-5-yl)acetic acid] | 11 nM | –
23 | Cc1ccc(-c2c3c(cc(C)c2[C@H](OC(C)(C)C)C(=O)O)N(C(=O)c2ccc(F)cc2)CC3)cc1 [Example 14, (S)-2-(tert-Butoxy)-2-(1-(4-fluorobenzoyl)-6-methyl-4-(p-tolyl)indolin-5-yl)acetic acid] | 7 nM | –
24 | COc1c(F)ccc(F)c1C(=O)N1CCc2c1cc(C)c([C@H](OC(C)(C)C)C(=O)O)c2-c1ccc(C)cc1 [Example 15, (S)-2-(tert-Butoxy)-2-(1-(3,6-difluoro-2-methoxybenzoyl)-6-methyl-4-(p-tolyl)indolin-5-yl)acetic acid] | 117 nM | –
25 | COc1cccc(C(=O)N2CCc3c2cc(C)c([C@H](OC(C)(C)C)C(=O)O)c3-c2ccc(C)cc2)c1 [Example 16, (S)-2-(tert-Butoxy)-2-(1-(3-methoxybenzoyl)-6-methyl-4-(p-tolyl)indolin-5-yl)acetic acid] | 12 nM | –
26 | COc1ccccc1C(=O)N1CCc2c1cc(C)c([C@H](OC(C)(C)C)C(=O)O)c2-c1ccc(C)cc1 [Example 17, (S)-2-(tert-Butoxy)-2-(1-(2-methoxybenzoyl)-6-methyl-4-(p-tolyl)indolin-5-yl)acetic acid] | 11 nM | –
27 | Cc1ccc(-c2c3c(cc(C)c2[C@H](OC(C)(C)C)C(=O)O)N(C(=O)c2ccccc2F)CC3)cc1 [Example 18, (S)-2-(tert-Butoxy)-2-(1-(2-fluorobenzoyl)-6-methyl-4-(p-tolyl)indolin-5-yl)acetic acid] | 11 nM | –
28 | Cc1ccc(-c2c3c(cc(C)c2[C@H](OC(C)(C)C)C(=O)O)N(C(=O)c2ccc(F)cc2Cl)CC3)cc1 [Example 19, (S)-2-(tert-Butoxy)-2-(1-(2-chloro-4-fluorobenzoyl)-6-methyl-4-(p-tolyl)indolin-5-yl)acetic acid] | 5 nM | –
29 | COc1cccc(C(=O)N2CCc3c2cc(C)c([C@H](OC(C)(C)C)C(=O)O)c3-c2ccc(C)cc2)c1F [Example 20, (S)-2-(tert-Butoxy)-2-(1-(2-fluoro-3-methoxybenzoyl)-6-methyl-4-(p-tolyl)indolin-5-yl)acetic acid] | 66 nM | –
30 | COc1cc(F)ccc1C(=O)N1CCc2c1cc(C)c([C@H](OC(C)(C)C)C(=O)O)c2-c1ccc(C)cc1 [Example 21, (S)-2-(tert-Butoxy)-2-(1-(4-fluoro-2-methoxybenzoyl)-6-methyl-4-(p-tolyl)indolin-5-yl)acetic acid] | 9 nM | –
31 | Cc1ccc(-c2c3c(cc(C)c2[C@H](OC(C)(C)C)C(=O)O)N(C(=O)c2ccc(Cl)cc2)CC3)cc1 [Example 22, (S)-2-(tert-Butoxy)-2-(1-(4-chlorobenzoyl)-6-methyl-4-(p-tolyl)indolin-5-yl)acetic acid] | 11 nM | –
32 | Cc1ccc(-c2c3c(cc(C)c2[C@H](OC(C)(C)C)C(=O)O)N(C(=O)OC(C)(C)C)CC3)cc1 [Example 24, (S)-2-(tert-Butoxy)-2-(1-(tert-butoxycarbonyl)-6-methyl-4-(p-tolyl)indolin-5-yl)acetic acid] | 47 nM | –
